From US20220184040A1, “METHOD OF TREATING MALIGNANT RHABDOID TUMOR OF THE OVARY AND SMALL CELL CANCER OF THE OVARY OF THE HYPERCALCEMIC TYPE” (TRANSLATIONAL DRUG DEVELOPMENT, LLC, priority 2019, published 2022)
Entries after “also recorded” stand apart in the source; their conditions may differ. Read-outs that look alike come from different tables or passages of the source.

Legend:
[1] = system: SCCOHT cell lines (BIN67, COV434, and SCCOHT-1); assay: Cell proliferation assays, three SCCOHT cell lines; assay type: cell-based; settings: Homo sapiens; range over BIN67, COV434, SCCOHT-1
Protocol: (§1) Cell viability was measured by the CellTiter -GlO® cell viability assay from Promega (Madison, Wis.). The CellTiter-GlO® Luminescent Cell Viability Assay is a homogeneous method to determine the number of viable cells in culture based on quantitation of the ATP present, which signals the presence of metabolically active cells. Following treatment, CellTiter-GlO® is added to treatment wells and incubated at 37° C. luminescence values were measured at using a Molecular Devices Spectramax microplate reader
(§2) Cells were grown to 70% confluency, trypsinized, counted, and seeded in 96 well flat-bottom plates at a final concentration of 2.5×10^3-5×10^3 cells/well (Day 0). Cells were allowed to incubate in growth media for 24 hours. Treatment with the test agents or standard agents began on Day 1 and continued for 72 hours. At the 72-hour timepoint, treatment containing media was removed. Viable cell numbers are quantified by the CellTiter-GlO® cell viability assay as described above. […]
(§3) For single agent and combination studies, data from each experiment was collected and expressed as % Cell Growth using the following calculation: […]
(§4) Where ftest is the fluorescence of the tested sample, and fvehicle is the fluorescence of the vehicle in which the drug is dissolved. […]

BIN67 = assay: CellTiter-Glo cell viability assay, BIN67; assay type: cell-based; settings: Homo sapiens; BIN67, 72 hours treatment
Protocol: as §1, §2, §3, §4

A427 = assay: CellTiter-Glo cell viability assay, A427; assay type: cell-based; settings: Homo sapiens, A-427, read-out: anti-proliferative IC50
Protocol: as §1, §2, §3, §4

CT-26 tumors = assay: Syngeneic CT-26 mouse colon cancer model; assay type: in vivo
Source text: Given the importance of MHC Class II expression and response to checkpoint inhibitor therapies, we tested the activity of GB-3103 alone and in combination with anti-mPD-1 and anti-mPD-L1 antibodies in a syngeneic CT-26 mouse colon cancer model. […] However, tumor growth resumed on Day 15 and continued to increase until Day 26 (see FIG. 7).

[2] = system: SMARCA2 protein expression in BIN-67 cells; assay: SMARCA2 protein expression in treated BIN-67 cells; assay type: cell-based, human; settings: in vitro treatment
HDAC1 = HDAC1 (Homo sapiens, UniProt Q13547); assay: HDAC isoform inhibition, HDAC1; assay type: biochemical
Sequence of HDAC1 (Q13547 whole entry, canonical isoform): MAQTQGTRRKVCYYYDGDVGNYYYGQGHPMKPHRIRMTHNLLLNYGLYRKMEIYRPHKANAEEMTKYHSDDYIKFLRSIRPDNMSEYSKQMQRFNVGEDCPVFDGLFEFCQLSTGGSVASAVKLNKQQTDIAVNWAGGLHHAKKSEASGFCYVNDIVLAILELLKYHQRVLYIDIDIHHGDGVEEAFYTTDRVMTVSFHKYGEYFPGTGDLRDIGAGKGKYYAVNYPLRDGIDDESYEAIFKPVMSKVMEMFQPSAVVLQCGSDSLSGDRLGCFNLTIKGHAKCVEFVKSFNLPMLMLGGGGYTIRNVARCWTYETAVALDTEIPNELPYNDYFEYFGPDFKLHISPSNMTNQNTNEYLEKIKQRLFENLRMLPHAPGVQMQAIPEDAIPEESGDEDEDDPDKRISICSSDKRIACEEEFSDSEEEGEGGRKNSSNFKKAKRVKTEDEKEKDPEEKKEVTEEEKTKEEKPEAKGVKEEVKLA
Source text: (§5) In contrast to pan-HDAC inhibition, isoform restricted HDAC inhibition revokes immune privilege. HDAC3 has emerged as a key target to enhance immune function: • Decrease in Treg suppressive function • Increase in Natural Killer Cell ligand expression on tumors • Enhance macrophage host defense activity • Upregulation of PD-L1 expression and increased sensitivity to anti-PD1 treatments HDAC6 inhibition has potent immunomodulatory benefits including: • Decrease in expression of the anti-inflammatory cytokine IL-10 • Enhanced expression of MHC class I/II genes and increased expression of known tumor antigens • Decreased immunosuppression and enhanced immune function of melanoma patient T-cells

H522 = assay: CellTiter-Glo cell viability assay, H522; assay type: cell-based; settings: Homo sapiens, NCI-H522; read-out: anti-proliferative IC50
Protocol: as §1, §2, §3, §4

HDAC9 = HDAC9 (Homo sapiens, UniProt Q9UKV0); assay: HDAC isoform inhibition, HDAC9; assay type: biochemical
Source text: as §5

[3] = system: G401 human malignant rhabdoid tumor xenografts; assay: Malignant rhabdoid tumor xenograft model (G401); assay type: in vivo, mice
Protocol: In vivo treatment of tumors in a malignant rhabdoid tumor xenograft model (G401) was evaluated. In vivo xenograft tumors from MRT line G401 were dosed with (S)-N-hydroxy-2-(2-(4-methoxyphenyl)butanamido)thiazole-5-carboxamide (i.e., GB-3103) for 30 days.

HDAC10 = HDAC10 (Homo sapiens, UniProt Q969S8); assay: HDAC isoform inhibition, HDAC10; assay type: biochemical
Sequence of HDAC10 (Q969S8 whole entry, canonical isoform): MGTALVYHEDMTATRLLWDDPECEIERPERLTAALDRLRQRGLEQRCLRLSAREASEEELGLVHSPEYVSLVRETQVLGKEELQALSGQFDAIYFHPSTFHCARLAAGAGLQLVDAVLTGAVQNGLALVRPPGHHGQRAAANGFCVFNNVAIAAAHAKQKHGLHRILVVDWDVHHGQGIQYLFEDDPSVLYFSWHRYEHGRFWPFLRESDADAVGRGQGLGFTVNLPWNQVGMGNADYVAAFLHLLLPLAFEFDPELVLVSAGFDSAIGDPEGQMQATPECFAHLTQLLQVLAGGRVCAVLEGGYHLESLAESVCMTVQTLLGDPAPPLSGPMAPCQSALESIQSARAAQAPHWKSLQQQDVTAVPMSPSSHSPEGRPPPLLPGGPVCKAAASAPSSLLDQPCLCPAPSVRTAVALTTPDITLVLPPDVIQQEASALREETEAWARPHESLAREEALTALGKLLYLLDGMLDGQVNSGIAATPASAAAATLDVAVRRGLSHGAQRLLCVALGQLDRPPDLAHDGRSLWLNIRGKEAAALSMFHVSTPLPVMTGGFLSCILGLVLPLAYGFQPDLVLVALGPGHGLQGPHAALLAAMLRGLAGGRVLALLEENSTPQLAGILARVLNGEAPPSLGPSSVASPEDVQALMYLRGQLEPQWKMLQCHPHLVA
Source text: as §5

HDAC3 = HDAC3 (Homo sapiens, UniProt O15379); assay: HDAC isoform inhibition, HDAC3; assay type: biochemical
Source text: as §5

HDAC5 = HDAC5 (Homo sapiens, UniProt Q9UQL6); assay: HDAC isoform inhibition, HDAC5; assay type: biochemical
Sequence of HDAC5 (Q9UQL6 whole entry, canonical isoform): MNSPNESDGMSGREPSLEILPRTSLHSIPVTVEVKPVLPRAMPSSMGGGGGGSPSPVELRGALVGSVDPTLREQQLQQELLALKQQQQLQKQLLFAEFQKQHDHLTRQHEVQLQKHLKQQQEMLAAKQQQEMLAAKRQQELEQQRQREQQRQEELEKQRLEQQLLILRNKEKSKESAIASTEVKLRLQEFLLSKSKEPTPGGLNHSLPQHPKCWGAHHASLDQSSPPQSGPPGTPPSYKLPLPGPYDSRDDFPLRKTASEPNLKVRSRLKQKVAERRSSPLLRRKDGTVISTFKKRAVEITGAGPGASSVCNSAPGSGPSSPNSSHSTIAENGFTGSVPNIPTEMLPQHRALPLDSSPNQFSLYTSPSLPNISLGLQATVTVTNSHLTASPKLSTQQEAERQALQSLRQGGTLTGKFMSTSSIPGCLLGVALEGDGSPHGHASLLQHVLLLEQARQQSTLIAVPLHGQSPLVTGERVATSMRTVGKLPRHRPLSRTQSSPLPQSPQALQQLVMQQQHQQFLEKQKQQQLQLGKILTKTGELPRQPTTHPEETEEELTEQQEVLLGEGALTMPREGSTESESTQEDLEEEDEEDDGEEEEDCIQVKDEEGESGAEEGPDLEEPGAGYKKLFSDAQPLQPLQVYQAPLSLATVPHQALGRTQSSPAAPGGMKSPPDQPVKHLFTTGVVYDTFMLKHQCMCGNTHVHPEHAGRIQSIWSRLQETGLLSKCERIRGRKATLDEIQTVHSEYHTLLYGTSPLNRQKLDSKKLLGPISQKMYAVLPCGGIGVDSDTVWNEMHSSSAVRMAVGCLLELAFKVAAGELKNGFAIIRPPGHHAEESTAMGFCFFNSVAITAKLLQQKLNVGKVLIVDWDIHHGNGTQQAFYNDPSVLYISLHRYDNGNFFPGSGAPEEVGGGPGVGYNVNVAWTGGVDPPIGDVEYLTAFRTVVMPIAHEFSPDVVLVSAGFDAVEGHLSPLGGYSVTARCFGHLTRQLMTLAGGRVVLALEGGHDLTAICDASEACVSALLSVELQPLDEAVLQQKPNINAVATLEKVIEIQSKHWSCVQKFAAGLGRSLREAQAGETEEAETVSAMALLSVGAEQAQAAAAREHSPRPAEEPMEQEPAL
Source text: as §5

HDAC7 = HDAC7 (Homo sapiens, UniProt Q8WUI4); assay: HDAC isoform inhibition, HDAC7; assay type: biochemical
Source text: as §5

HDAC4 = HDAC4 (Homo sapiens, UniProt P56524); assay: HDAC isoform inhibition, HDAC4; assay type: biochemical
Sequence of HDAC4 (P56524 whole entry, canonical isoform): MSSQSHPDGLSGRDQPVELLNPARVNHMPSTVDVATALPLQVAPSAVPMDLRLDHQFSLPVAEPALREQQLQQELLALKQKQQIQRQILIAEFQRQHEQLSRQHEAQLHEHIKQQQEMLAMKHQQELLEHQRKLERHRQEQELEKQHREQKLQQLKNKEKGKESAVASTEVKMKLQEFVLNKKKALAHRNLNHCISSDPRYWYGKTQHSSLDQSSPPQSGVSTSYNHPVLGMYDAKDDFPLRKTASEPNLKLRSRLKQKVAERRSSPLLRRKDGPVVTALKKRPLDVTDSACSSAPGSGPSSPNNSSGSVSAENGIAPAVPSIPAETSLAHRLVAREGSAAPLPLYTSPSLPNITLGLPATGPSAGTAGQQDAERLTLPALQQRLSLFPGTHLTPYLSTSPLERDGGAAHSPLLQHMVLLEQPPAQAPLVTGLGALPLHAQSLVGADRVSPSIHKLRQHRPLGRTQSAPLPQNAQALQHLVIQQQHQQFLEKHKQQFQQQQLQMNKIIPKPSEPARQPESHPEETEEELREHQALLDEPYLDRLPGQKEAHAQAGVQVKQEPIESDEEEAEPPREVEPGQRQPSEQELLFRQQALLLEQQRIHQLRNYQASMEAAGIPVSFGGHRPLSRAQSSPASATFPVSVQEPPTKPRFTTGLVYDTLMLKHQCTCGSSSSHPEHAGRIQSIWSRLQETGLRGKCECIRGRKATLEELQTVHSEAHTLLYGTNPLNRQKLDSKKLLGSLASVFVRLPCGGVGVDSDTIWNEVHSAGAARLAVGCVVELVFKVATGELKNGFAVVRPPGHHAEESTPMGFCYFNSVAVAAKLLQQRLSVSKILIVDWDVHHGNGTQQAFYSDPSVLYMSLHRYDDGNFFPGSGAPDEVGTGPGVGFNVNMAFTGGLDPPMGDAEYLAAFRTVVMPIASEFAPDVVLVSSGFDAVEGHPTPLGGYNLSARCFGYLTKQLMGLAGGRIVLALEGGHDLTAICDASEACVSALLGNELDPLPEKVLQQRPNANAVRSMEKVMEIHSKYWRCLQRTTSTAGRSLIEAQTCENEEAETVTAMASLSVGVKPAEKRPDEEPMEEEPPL
Source text: as §5

G401 = assay: CellTiter-Glo cell viability assay, G401; assay type: cell-based; settings: Homo sapiens, G-401, read-out: anti-proliferative IC50
Protocol: as §1, §2, §3, §4

BIN67 cells = assay: RNA-Seq analyses of treated BIN67 cells; assay type: cell-based, human
HDAC6 = HDAC6 (Homo sapiens, UniProt Q9UBN7); assay: HDAC isoform inhibition, HDAC6; assay type: biochemical
Sequence of HDAC6 (Q9UBN7 whole entry, canonical isoform): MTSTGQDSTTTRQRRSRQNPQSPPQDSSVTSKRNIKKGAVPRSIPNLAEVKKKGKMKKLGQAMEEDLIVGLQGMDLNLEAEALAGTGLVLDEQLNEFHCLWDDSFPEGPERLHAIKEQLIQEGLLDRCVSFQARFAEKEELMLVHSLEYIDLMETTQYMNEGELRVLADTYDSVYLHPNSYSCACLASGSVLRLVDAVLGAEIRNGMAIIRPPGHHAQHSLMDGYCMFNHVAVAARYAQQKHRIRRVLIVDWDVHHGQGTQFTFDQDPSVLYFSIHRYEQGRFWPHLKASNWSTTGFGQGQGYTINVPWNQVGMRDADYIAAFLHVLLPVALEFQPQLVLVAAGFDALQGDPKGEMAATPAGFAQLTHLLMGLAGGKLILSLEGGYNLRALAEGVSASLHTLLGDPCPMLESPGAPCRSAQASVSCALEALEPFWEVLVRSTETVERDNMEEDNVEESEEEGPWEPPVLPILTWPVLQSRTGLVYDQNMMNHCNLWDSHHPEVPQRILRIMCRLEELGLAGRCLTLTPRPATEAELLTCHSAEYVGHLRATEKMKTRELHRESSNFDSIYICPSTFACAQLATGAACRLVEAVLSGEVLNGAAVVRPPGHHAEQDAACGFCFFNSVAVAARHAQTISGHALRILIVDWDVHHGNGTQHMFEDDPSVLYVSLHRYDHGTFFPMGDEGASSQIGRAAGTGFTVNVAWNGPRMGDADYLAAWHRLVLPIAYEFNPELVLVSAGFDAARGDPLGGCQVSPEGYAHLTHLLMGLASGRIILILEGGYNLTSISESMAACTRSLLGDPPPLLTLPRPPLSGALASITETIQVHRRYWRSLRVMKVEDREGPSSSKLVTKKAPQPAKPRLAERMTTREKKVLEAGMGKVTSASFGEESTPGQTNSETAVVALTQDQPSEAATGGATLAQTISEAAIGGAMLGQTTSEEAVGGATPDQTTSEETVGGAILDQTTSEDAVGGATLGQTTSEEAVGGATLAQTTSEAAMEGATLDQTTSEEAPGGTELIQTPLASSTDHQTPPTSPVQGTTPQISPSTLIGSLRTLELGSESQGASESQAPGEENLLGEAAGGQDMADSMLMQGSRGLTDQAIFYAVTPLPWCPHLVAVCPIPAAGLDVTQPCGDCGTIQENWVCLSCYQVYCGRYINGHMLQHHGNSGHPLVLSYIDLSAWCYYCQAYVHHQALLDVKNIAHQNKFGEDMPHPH
Source text: as §5

A204 = assay: CellTiter-Glo cell viability assay, A204; assay type: cell-based; settings: Homo sapiens, read-out: anti-proliferative IC50
Protocol: as §1, §2, §3, §4

HDAC8 = HDAC8 (Homo sapiens, UniProt Q9BY41); assay: HDAC isoform inhibition, HDAC8; assay type: biochemical
Source text: as §5

COV434 = assay: CellTiter-Glo cell viability assay, COV434; assay type: cell-based; settings: Homo sapiens
Protocol: as §1, §2, §3, §4

G402 = assay: CellTiter-Glo cell viability assay, G402; assay type: cell-based; settings: Homo sapiens, G-402, read-out: anti-proliferative IC50
Protocol: as §1, §2, §3, §4

[4] = system: BIN67 human tumor xenografts; assay: SCCOHT xenograft model (BIN-67); assay type: in vivo, mice; settings: for mean tumor regression: BIN67 xenografts in mice, two weeks post-treatment initiation
Protocol: In vivo treatment of tumors in an SCCOHT xenograft model (BIN-67) was evaluated. In vivo xenograft tumors from SCCOHT cell line BIN-67 were dosed with (S)-N-hydroxy-2-(2-(4-methoxyphenyl)butanamido)thiazole-5-carboxamide (i.e., GB-3103) for 60 days.

SCCOHT-1 = assay: CellTiter-Glo cell viability assay, SCCOHT-1; assay type: cell-based; settings: Homo sapiens; SCCOHT-1, 72 hours treatment
Protocol: as §1, §2, §3, §4

HDAC11 = HDAC11 (Homo sapiens, UniProt Q96DB2); assay: HDAC isoform inhibition, HDAC11; assay type: biochemical
Sequence of HDAC11 (Q96DB2 whole entry, canonical isoform): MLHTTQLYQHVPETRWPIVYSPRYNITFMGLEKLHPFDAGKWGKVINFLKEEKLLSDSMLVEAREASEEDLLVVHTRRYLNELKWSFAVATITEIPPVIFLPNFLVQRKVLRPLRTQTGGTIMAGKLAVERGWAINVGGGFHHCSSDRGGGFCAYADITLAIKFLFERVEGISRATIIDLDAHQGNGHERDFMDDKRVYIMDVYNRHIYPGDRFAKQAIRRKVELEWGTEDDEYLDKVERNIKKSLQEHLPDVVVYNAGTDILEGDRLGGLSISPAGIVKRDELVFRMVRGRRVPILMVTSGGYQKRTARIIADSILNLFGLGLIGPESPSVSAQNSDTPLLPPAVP
Source text: as §5

[5] = system: Dual SMARCA2 and SMARCA4 deficient cell lines (A204, G401, G402, H522, and A427); assay: Proliferation assays, dual SMARCA2 and SMARCA4 deficient cell lines; assay type: cell-based; settings: range over A204, G401, G402, H522, A427
Protocol: as §1, §2, §3, §4

[6] = system: SMARCA2 gene expression in BIN-67 cells; assay: SMARCA2 gene expression in treated BIN-67 cells; assay type: cell-based, human; settings: in vitro treatment
HDAC2 = HDAC2 (Homo sapiens, UniProt Q92769); assay: HDAC isoform inhibition, HDAC2; assay type: biochemical
Source text: as §5

Question: With `CC[C@H](C(=O)Nc1ncc(C(=O)NO)s1)c1ccc(OC)cc1` [GB-3103, (S)-N-hydroxy-2-(2-(4-methoxyphenyl)butanamido)thiazol-5-carboxamide] as the compound, how does the IC50 [1] read?
Answer: 0.051 to 0.293 µM

Question: What about the IC50 (BIN67) of the same compound?
Answer: 0.051 µM

Question: And the IC50 (A427)?
Answer: 0.174 µM

Question: And the “effect on established tumors” value (CT-26 tumors; CT-26 syngeneic model, combined with anti-mPD-1 antibody)?
Answer: regression of established CT-26 tumors

Question: And the “effect on established tumors” value (CT-26 tumors; CT-26 syngeneic model, combined with anti-mPD-L1 antibody)?
Answer: regression of established CT-26 tumors

Question: What about the TGI (CT-26 tumors; CT-26 syngeneic model, single agent) of the same compound?
Answer: 93%

Question: And the “day on which tumor growth resumed” value (CT-26 tumors; CT-26 syngeneic model, single agent, growth continued until Day 26)?
Answer: 15 days

Question: And the tumor memory response (CT-26 tumors; alone and in combination with anti-PD-1/anti-PD-L1 checkpoint modulators, mice)?
Answer: creates a tumor memory response preventing re-growth of tumors

Question: What about the “induction of SMARCA2 protein expression” value [2] of the same compound?
Answer: potent concentration- and time-dependent induction of SMARCA2 expression at both mRNA and protein levels

Question: What about the IC50 (HDAC1) of the same compound?
Answer: 0.001 µM

Question: What about the IC50 (H522) of the same compound?
Answer: 0.102 µM

Question: What about the IC50 (HDAC9) of the same compound?
Answer: 0.187 µM

Question: And the “tumor volume compared to vehicle control tumors” value ([3]; G401 xenograft, dosed for 30 days)?
Answer: statistically significant decreases in volume

Question: And the “tumor growth inhibition (TGI) compared to vehicle control” value ([3]; G401 xenografts in mice, 5 mg/kg, QD, P<0.05)?
Answer: 70%

Question: What about the IC50 (HDAC10) of the same compound?
Answer: 0.00203 µM

Question: And the IC50 (HDAC3)?
Answer: 0.000565 µM

Question: And the IC50 (HDAC5)?
Answer: 0.0735 µM

Question: And the IC50 (HDAC7)?
Answer: 0.0345 µM

Question: What about the IC50 (HDAC4) of the same compound?
Answer: 0.138 µM

Question: And the IC50 (G401)?
Answer: 0.138 µM

Question: What about the RNA-Seq findings (BIN67 cells) of the same compound?
Answer: affects DNA replication and mRNA stability as well as inducing the expression of MHC Class II proteins

Question: What about the IC50 (HDAC6) of the same compound?
Answer: 0.000706 µM

Question: What about the “mode of inhibition of HDAC6” value (HDAC6) of the same compound?
Answer: irreversible

Question: And the IC50 (A204)?
Answer: 0.095 µM

Question: What about the IC50 (HDAC8) of the same compound?
Answer: 0.133 µM

Question: What about the IC50 (COV434; COV434, read-out: anti-proliferative IC50) of the same compound?
Answer: 0.035 µM

Question: What about the IC50 (COV434; COV434, 72 hours treatment, read-out: IC50) of the same compound?
Answer: 0.035 µM

Question: And the IC50 (G402)?
Answer: 0.071 µM

Question: What about the mean tumor regression ([4]; 5 mg/kg QD) of the same compound?
Answer: 26%

Question: What about the mean tumor regression ([4]; 10 mg/kg QD) of the same compound?
Answer: 33%

Question: And the “tumor volume compared to vehicle control tumors” value ([4]; BIN-67 xenograft, dosed for 60 days)?
Answer: statistically significant decreases in volume

Question: What about the IC50 (SCCOHT-1) of the same compound?
Answer: 0.293 µM

Question: And the IC50 (HDAC11)?
Answer: 5.78 µM

Question: What about the IC50 [5] of the same compound?
Answer: 0.05 to 0.2 µM

Question: What about the “induction of SMARCA2 gene (mRNA) expression” value [6] of the same compound?
Answer: concentration and time dependent induction of SMARCA2 gene re-expression; also recorded: potent concentration- and time-dependent induction of SMARCA2 expression at both mRNA and protein levels

Question: What about the IC50 (HDAC2) of the same compound?
Answer: 0.0053 µM
